# Data reported in ChEMBL document CHEMBL1146371, “HSP90-like artificial chaperone activity based on indole beta-cyclodextrin” (Bioorg Med Chem, 2007).
# Calls of active or inactive are those of the source. The rule behind the calls is not given here.
# Test: Artificial […]-like chaperone activity assessed as prevention of citrate synthase thermal aggregation
# Assay type: functional
row,Structure (SMILES),Activity
1,OC[C@H]1O[C@@H]2O[C@H]3[C@H](O)[C@@H](O)[C@@H](O[C@H]4[C@H](O)[C@@H](O)[C@@H](O[C@H]5[C@H](O)[C@@H](O)[C@@H](O[C@H]6[C@H](O)[C@@H](O)[C@@H](O[C@H]7[C@H](O)[C@@H](O)[C@@H](O[C@H]1[C@H](O)[C@H]2O)O[C@@H]7CO)O[C@@H]6CO)O[C@@H]5CO)O[C@@H]4CO)O[C@@H]3CO,inactive
2,OC[C@H]1O[C@@H]2O[C@H]3[C@H](O)[C@@H](O)[C@@H](O[C@H]4[C@H](O)[C@@H](O)[C@@H](O[C@H]5[C@H](O)[C@@H](O)[C@@H](O[C@H]6[C@H](O)[C@@H](O)[C@@H](O[C@H]7[C@H](O)[C@@H](O)[C@@H](O[C@H]8[C@H](O)[C@@H](O)[C@@H](O[C@H]1[C@H](O)[C@H]2O)O[C@@H]8CO)O[C@@H]7CO)O[C@@H]6CO)O[C@@H]5CO)O[C@@H]4CO)O[C@@H]3CO,Active
